Test results taken from the supplement of paper PMC10307832.

Columns and labels:
Experiment in all cases: relative viability (nuclei count vs DMSO), 5 days (fraction); higher = more cells survive
[1] = compound: Cc1cc([C@@H](C)Nc2ccccc2C(=O)O)c2nc(N3CCOCC3)cc(=O)n2c1 [AZD6482] + CC(=O)c1c(C)c2cnc(Nc3ccc(N4CCNCC4)cn3)nc2n(C2CCCC2)c1=O [Palbociclib] (partner 0.5 µM)
Outline: (§1)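 Lung cancer cell lines in 1536-well plates got either a single drug or a fixed anchor-drug dose together with five library-drug doses (not always all listed) in √10 steps, by pin tool, on the day after seeding. Nuclei were counted after 5 days, and relative viability is the treated-to-vehicle ratio of nuclei counts. Values are medians of duplicate plates.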

[2] = compound: Cc1cc([C@@H](C)Nc2ccccc2C(=O)O)c2nc(N3CCOCC3)cc(=O)n2c1 [AZD6482] + CS(=O)(=O)N1CCN(Cc2cc3nc(-c4cccc5[nH]ncc45)nc(N4CCOCC4)c3s2)CC1 [Pictilisib] (partner 1 µM)
Outline: as §1

[3] = compound: Cc1cc([C@@H](C)Nc2ccccc2C(=O)O)c2nc(N3CCOCC3)cc(=O)n2c1 [AZD6482] + CC(=O)Nc1cccc(-n2c(=O)n(C3CC3)c(=O)c3c(Nc4ccc(I)cc4F)n(C)c(=O)c(C)c32)c1 [Trametinib] (partner 0.02 µM)
Outline: as §1

[4] = compound: COc1cc2nc(N3CCCN(C)CC3)nc(NC3CCN(Cc4ccccc4)CC3)c2cc1OC + CC(=O)c1c(C)c2cnc(Nc3ccc(N4CCNCC4)cn3)nc2n(C2CCCC2)c1=O [Palbociclib] (partner 0.5 µM)
Outline: as §1

Cell Line	relative viability ([1]; first compound 0.08 µM)	relative viability ([1]; first compound 0.253 µM)	relative viability ([1]; first compound 0.8 µM)	relative viability ([1]; first compound 2.53 µM)	relative viability ([1]; first compound 8 µM)	relative viability ([2]; first compound 0.08 µM)	relative viability ([2]; first compound 0.253 µM)	relative viability ([2]; first compound 0.8 µM)	relative viability ([2]; first compound 2.53 µM)	relative viability ([2]; first compound 8 µM)	relative viability ([3]; first compound 0.08 µM)	relative viability ([3]; first compound 0.253 µM)	relative viability ([3]; first compound 0.8 µM)	relative viability ([3]; first compound 2.53 µM)	relative viability ([3]; first compound 8 µM)	relative viability ([4]; first compound 0.2 µM)	relative viability ([4]; first compound 0.6325 µM)	relative viability ([4]; first compound 2 µM)	relative viability ([4]; first compound 6.325 µM)
LOU-NH91	0.537	0.557	0.552	0.49	0.542	0.491	0.513	0.516	0.48	0.493	0.752	0.8	0.757	0.603	0.623	0.464	0.424	0.588	0.552
LU99A	0.373	0.368	0.397	0.353	0.311	0.339	0.335	0.366	0.25	0.34	0.457	0.478	0.539	0.568	0.475	0.379	0.38	0.371	0.412
LXF-289	0.565	0.605	0.634	0.631	0.55	0.66	0.736	0.739	0.638	0.745	0.681	0.77	0.801	0.717	0.609	0.583	0.603	0.615	0.586
NCI-H23	0.471	0.421	0.487	0.396	0.325	0.465	0.482	0.452	0.356	0.494	0.33	0.34	0.326	0.283	0.247	0.475	0.522	0.521	0.415
NCI-H322M	0.447	0.486	0.476	0.424	0.39	0.485	0.399	0.475	0.353	0.498	0.51	0.534	0.58	0.452	0.443	0.468	0.531	0.435	0.481
NCI-H358	0.149	0.121	0.134	0.127	0.115	0.274	0.386	0.276	0.202	0.358	0.133	0.131	0.12	0.117	0.113	0.147	0.118	0.141	0.139
NCI-H441	0.248	0.246	0.215		0.182	0.453	0.389	0.408	0.32	0.431	0.422	0.435	0.39		0.312	0.191	0.219	0.236	0.207
NCI-H460	0.124	0.138	0.269	0.135	0.129	0.332	0.336	0.379	0.249	0.331	0.138	0.106	0.146	0.0746	0.126	0.101	0.237	0.084	0.0622
NCI-H520	0.123	0.157	0.179	0.146	0.15	0.254	0.197	0.27		0.316	0.567	0.463	0.433	0.201	0.26	0.168	0.259	0.25	0.148
NCI-H647	0.305	0.293	0.309	0.241	0.195	0.358		0.38	0.249	0.408	0.32	0.367	0.333	0.254	0.209	0.336	0.457	0.348	0.213
NCI-H650	0.364	0.291	0.276	0.237	0.271	0.931		0.908	0.541	0.813	0.958	0.906	0.805	0.663	0.711	0.394	0.307	0.31	0.295
NCI-H661	0.41	0.43	0.41	0.387	0.364	0.326	0.353	0.484		0.356	0.615	0.555	0.61	0.428	0.387	0.417	0.429	0.426	0.387
NCI-H727	0.63	0.63	0.811		0.532	0.357	0.302	0.356		0.404	0.382	0.358	0.394		0.386	0.617	0.656	0.571	0.632
NCI-H838	0.167	0.203	0.204	0.167	0.163	0.461	0.464	0.442	0.339	0.487	0.419	0.494	0.451	0.316	0.336	0.185	0.229	0.213	0.212
NCI-H1355	0.294	0.374	0.32	0.279	0.286	0.302	0.43	0.425	0.244	0.453	0.345	0.374	0.37	0.339	0.305	0.404	0.379	0.423	0.386
NCI-H1395	0.49	0.486	0.482	0.401	0.456	0.549	0.459	0.536	0.422	0.438	0.949	0.8	0.785	0.522	0.627	0.642	0.605	0.618	0.565
NCI-H1437	0.353	0.319	0.36	0.316	0.24	0.471	0.326	0.473	0.319	0.392	0.506	0.451	0.473	0.298	0.282	0.29	0.319	0.32	0.279

Cell Line	relative viability ([1]; first compound 0.08 µM)	relative viability ([1]; first compound 0.253 µM)	relative viability ([1]; first compound 0.8 µM)	relative viability ([1]; first compound 2.53 µM)	relative viability ([1]; first compound 8 µM)	relative viability ([2]; first compound 0.08 µM)	relative viability ([2]; first compound 0.253 µM)	relative viability ([2]; first compound 0.8 µM)	relative viability ([2]; first compound 2.53 µM)	relative viability ([2]; first compound 8 µM)	relative viability ([3]; first compound 0.08 µM)	relative viability ([3]; first compound 0.253 µM)	relative viability ([3]; first compound 0.8 µM)	relative viability ([3]; first compound 2.53 µM)	relative viability ([3]; first compound 8 µM)	relative viability ([4]; first compound 0.2 µM)	relative viability ([4]; first compound 0.6325 µM)	relative viability ([4]; first compound 2 µM)	relative viability ([4]; first compound 6.325 µM)
NCI-H1650	0.312	0.271	0.269	0.267	0.288	0.55		0.664	0.398	0.843	0.62	0.455	0.614	0.546	0.527	0.243	0.448	0.328	0.287
NCI-H1651	0.485	0.493	0.508	0.486	0.496	0.596	0.58	0.569	0.432	0.508	0.767	0.7	0.835	0.691	0.68	0.518	0.5	0.515	0.522
NCI-H1666	0.637	0.576	0.722	0.638	0.681	0.437	0.547	0.558	0.437	0.405	0.766	0.944	0.808	0.81	0.835	0.644	0.633	0.648	0.633
NCI-H1734	0.301	0.333	0.346	0.298	0.272	0.395	0.452	0.485	0.305	0.408	0.613	0.656	0.565	0.519	0.491	0.375	0.367	0.292	0.38
NCI-H1755	0.425	0.416	0.443	0.444	0.379	0.274	0.317	0.372	0.213	0.43	0.7	0.75	0.693	0.542	0.508	0.446	0.452	0.393	0.399
NCI-H1792	0.593	0.611	0.648	0.561	0.512	0.224	0.237	0.288	0.191	0.213	0.322	0.377	0.41	0.251	0.283	0.637	0.654	0.609	0.685
NCI-H1793	0.243	0.215	0.271	0.215	0.225	0.261	0.336	0.293		0.259	0.37	0.397	0.352	0.32	0.283	0.32	0.312	0.316	0.292
NCI-H1915	0.478	0.524	0.529	0.49	0.521	0.886	0.916	1.03	0.79	0.909	0.257	0.27	0.29	0.239	0.226	0.527	0.504	0.607	0.461
NCI-H1944	0.293	0.313	0.295	0.285	0.211	0.314	0.342	0.366	0.246	0.33	0.38	0.375	0.426	0.351	0.335	0.327	0.349	0.326	0.321
NCI-H1975	0.439	0.558	0.623	0.562	0.421	0.249	0.275	0.307	0.274	0.258	0.287	0.32	0.307	0.278	0.39	0.567	0.603	0.826	0.586
NCI-H1993	0.503	0.579	0.638	0.495	0.484	0.907	0.779			0.769	0.506	0.498	0.446	0.52	0.475	0.582	0.721	0.77	0.748
NCI-H2009	0.187	0.176	0.172	0.124	0.119	0.71	0.765	0.871	0.516	0.743	0.181	0.163	0.21	0.139	0.185	0.222	0.253	0.413	0.24
NCI-H2023	0.265	0.328	0.405	0.277	0.226	0.194	0.227	0.233	0.132	0.24	0.455	0.52	0.547	0.28	0.389	0.379	0.337	0.4	0.0878
NCI-H2085	0.408	0.379	0.336	0.273	0.343	0.428	0.359	0.404	0.33	0.407	0.266	0.231	0.218	0.223	0.218	0.455	0.484	0.5	0.458
NCI-H2087	0.235	0.223	0.209	0.185	0.207	0.758	0.723	0.91	0.611	0.889	0.176	0.162	0.133	0.132	0.183	0.233	0.201	0.219	0.215
NCI-H2126	0.356	0.383	0.351	0.314	0.36	0.446	0.513	0.494	0.368	0.483	0.538	0.531	0.448	0.39	0.351	0.373	0.325	0.367	0.328
NCI-H2170	0.36	0.387	0.387	0.384	0.347	0.285	0.261	0.307	0.258	0.317	0.878	0.879	0.844	0.836	0.733	0.383	0.406	0.37	0.352
